# Data as given in patent publication US20160146819A1, “CLASSIFICATION SYSTEM, METHODS AND KIT FOR CLASSIFYING, PREDICTING AND TREATING BREAST CANCER” (UNIVERSITY OF MIAMI, priority 2013, published 2016).
# Entries after “also recorded” stand apart in the source; their conditions may differ.
# Tested on: MDA-MB-453 breast cancer cell line (HR2+/HER2+, ER-negative)
# Test: Cell proliferation assay, MDA-MB-453 cells
# Type: cell-based, human
# Settings: MDA-MB-453 (ER-negative control); ICI 182,780 100 nM alone
# Protocol: All cell lines were cultured according to ATCC's guidelines. BT20, HCC1187, MDAMB468 and SUM159 cells were trypsinized with 0.05% trypsin/EDTA and plated at appropriate densities (BT20: 6,000, HCC1187: 10,000, MDAMB468: 4,000 and SUM159: 1,000 cells/well) in 96 well plates in DMEM+10% FBS. The next day Calcitriol and Taxol were added at concentrations of 25 nM and 1.5 nM respectively (Day0). For ZR75B, 4000 cells/well were plated in 96 well plates in DMEM+10% FBS. […] Calcitriol and 5 nM IC1180,782 were added the next day with fresh medium (Day0). Media was refreshed every two days and cell proliferation assay was performed on day 6 for above cell lines. The T47D cells were trypsinized with phenol red free Triple Express (Invitrogen) and washed once with PBS and 10,000 cells/well were plated in phenol red free DMEM+5% charcoal stripped FBS (CSFBS) in 96 well plates and cultured for 3 days. On the fourth day, 10 nM 17 beta estradiol (E2) was added into all the wells except non-drug treatment group, in addition to 10 nM IC1180,782, 10 nM R1881 and 50 nM Calcitriol in different groups with fresh phenol red free DMEM+5% CSFBS (Day0). […] All the proliferation assays were carried out using cell titer blue reagent (Promega) and fluorescence was measured using Bio-Tek spectrophotometer at 530/25 nm (excitation) and 590/35 nm (emission). […]
smiles,measurement,value
"C[C@]12CC[C@@H]3c4ccc(O)cc4C[C@@H](CCCCCCCCC[S+]([O-])CCCC(F)(F)C(F)(F)F)[C@H]3[C@@H]1CC[C@@H]2O (stereo partly shown) [ICI 182,780]",cell proliferation,no inhibition was observed; also recorded: no inhibition of cell proliferation
